The values that follow come from patent US20100273835A1, “NOVEL COMPOUNDS” (PROBIODRUG AG, priority 2007, published 2010).

Molecules are shown by their SMILES.

Assay [1] concerns beta-amyloid peptides 1-40 and 1-42, U-343 and SH-SY5Y cells. Put plainly: Beta-amyloid ELISA, secreted beta-amyloid peptides in conditioned medium. Type of assay: cell-based. Conditions: Homo sapiens; inhibitor 20 μM, 24 hours; untreated = 100%; FIG. 2: Abeta 1-42, SH-SY5Y cells; read-out: Extracellular Abeta-concentration % of control. As to the method: (§1) The human glioma cell line, U-343 and the human neuroblastoma cell line, SH-SY5Y were maintained in Dulbecco's modified Eagle's medium (DMEM) containing 10% fetal bovine serum (Gibco BRL, Karlsruhe, Germany) and incubated at 37° C. in a 5% CO2 atmosphere. Culture media contained in general 60 μg/ml gentamycin (Gibco BRL, Karlsruhe, Germany).
To quantify intracellular and extracellular concentrations of beta-amyloid peptides, 1-40 and 1-42, U-343 and SH-SY5Y cells were cultured in 6 well plates (1.5×10^6 cells/well) and treated with specific PEP inhibitors (20 μM each) for 24 hours. For quantitation of secreted beta-amyloid peptides the conditioned medium was collected and concentrated by lyophylisation. Likewise, after determination of the cell numbers/well (casy cell counter I, Schärfe System, Reutlingen, Germany), cells were lyzed with cell extraction buffer (Biosource, Solingen, Germany) according to the manufacturer's protocol. The protein concentration was determined by the method of Bradford (1976). Aliquots of 100 μl were used to quantify beta-amyloid peptides 1-40 and 1-42 in quadruplicate by ELISA (IBL, Hamburg, Germany) following the manufacturer's instructions. All obtained intracellular and extracellular concentrations were normalized to cell numbers and protein concentration, respectively.
For the calculation of the concentration of beta-amyloid peptides 1-40 and 1-42 in the cell culture medium after PEP-inhibitor treatment, the basal concentration of beta-amyloid peptides 1-40 and 1-42 in the cell culture medium of untreated cell samples was set to 100%. The results of the measurement of the concentration of beta-amyloid peptides 1-40 and 1-42 with PEP-inhibitor treated cells are presented as % of the untreated cell samples.
A general note: ELISA stands for enzyme-linked immunosorbent assay.

Assay [2] addresses T1, Recombinant human prolyl oligopeptidase (Homo sapiens, UniProt P48147).
T1 construct: made in house; host or cells: E. coli
T1 sequence (P48147 1-710): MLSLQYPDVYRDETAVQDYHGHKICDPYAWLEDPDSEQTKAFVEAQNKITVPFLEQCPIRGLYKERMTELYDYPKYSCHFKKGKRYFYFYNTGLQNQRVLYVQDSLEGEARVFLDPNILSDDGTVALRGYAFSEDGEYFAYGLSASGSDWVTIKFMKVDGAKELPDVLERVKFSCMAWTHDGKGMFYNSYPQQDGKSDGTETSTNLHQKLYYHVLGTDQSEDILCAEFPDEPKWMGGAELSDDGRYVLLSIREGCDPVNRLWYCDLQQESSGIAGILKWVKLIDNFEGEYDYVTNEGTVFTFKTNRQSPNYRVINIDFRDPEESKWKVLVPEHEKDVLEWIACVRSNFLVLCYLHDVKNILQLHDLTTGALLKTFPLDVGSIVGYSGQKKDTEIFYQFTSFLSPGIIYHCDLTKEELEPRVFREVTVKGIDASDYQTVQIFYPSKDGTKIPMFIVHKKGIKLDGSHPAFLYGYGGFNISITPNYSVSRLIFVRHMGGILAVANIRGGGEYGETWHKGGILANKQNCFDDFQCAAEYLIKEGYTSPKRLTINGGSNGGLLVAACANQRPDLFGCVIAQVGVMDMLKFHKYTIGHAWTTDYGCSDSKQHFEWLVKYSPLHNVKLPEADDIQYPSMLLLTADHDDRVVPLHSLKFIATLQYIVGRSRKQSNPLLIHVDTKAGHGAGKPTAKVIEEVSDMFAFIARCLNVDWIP
Put plainly: Determination of IC50- and Ki-values of PEP-inhibitors, chromogenic substrate Cbz-Gly-L-Pro-pNA. Type of assay: biochemical. As to conditions: for Ki: 4 substrate and 7 inhibitor concentrations, competitive inhibition, pH 7.6, 30° C.; for IC50: substrate 0.15 mM, HEPES buffer pH 7.6, 30° C., n.i. means no inhibition. How it is done:
Recombinant human prolyl oligopeptidase was used for measurement. Recombinant expression was performed in E. coli under standard conditions as described elsewhere in the state of the art.
For activity measurements the chromogenic substrate Cbz-Gly-L-Pro-pNA was used in HEPES buffer pH 7.6 containing 50 mM HEPES, 200 mM NaCl, 1 mM EDTA, 1 mM DTT, 0.006% Brij35. Measurements were carried out at 30° C. Release of pNA were monitored continuously at 405 nm.
IC50 values were calculated using non-linear regression to a 4-parameter equation (Prism 4.0, GraphPad).
For Ki determination 4 substrate (0.15 mM, 0.08 mM 0.04 mM, 0.02 mM) and 7 inhibitor concentrations in an appropriate range were used. Calculations were performed by multiple non-linear regression analysis to the equation for competitive inhibition using GraFit 5.0 Software (Erithacus Software).

In assay [3] the test system is basal secretion of IL-6, human glial U-343 cells. Briefly: IL-6 ELISA, basal secretion of IL-6 into conditioned medium. Type of assay: cell-based. As to conditions: inhibitor 20 μM, 24 hours, serum-free medium, untreated = 100%, read-out: Extracellular IL-6 concentration, % of untreated cells. How it is done: To analyze basal secretion of IL-6, human glial U-343 cells were cultured in 6 well plates (1.5×10^6 cells/well, Greiner) and treated with specific PEP inhibitors as indicated (20 μM each) for 24 hours in serum-free D-MEM medium (Invitrogen). Aliquots of 40 μl conditioned medium were used to quantify the amount of secreted IL-6 by an human-specific IL-6 ELISA (Biosource) following the manufacturer's instructions. All data were obtained in quadruplicate. For the calculation of the IL-6 concentration in the cell culture medium after PEP-inhibitor treatment, the basal IL-6 concentration of the cell culture medium of untreated cell samples was set to 100%. The results of the measurement of the IL-6 concentration with PEP-inhibitor treated cells are presented as % of the untreated cell samples.
as §1

The term Ki denotes the dissociation constant of the complex between target and ligand, obtained from inhibition or displacement. Usually IC50 stands for the concentration that inhibits the measured activity by half.

On to `CC(C)(C)OC(=O)N1CCC[C@H]1C(=O)c1nccs1` [Example 25, 2-[Boc-L-Pro]Thiazole], for which the activity at 20 µM in assay [1] is 111%. Further, in assay [2], the inhibition constant Ki amounted to 2.3 µM and the half-inhibitory concentration (IC50) turned out to be 7.3 µM. For the same compound, the activity at 20 µM in assay [3] came to 59%.
For `CC(C)(C)OC(=O)N[C@@H](Cc1ccccc1)C(=O)c1nccs1` [Example 26, 2-[Boc-L-Phe]Thiazole], in that order: 168%, 52 µM, 77 µM and 66%.
